Mean fluorescence data for one compound are collected here from patent publication US7655392B2, “Quenching methods for red blood cell inactivation process” (priority 2004, dated 2010).

Each structure is given as a SMILES string. Like-named read-outs stand apart in the source and are kept apart here.

For this assay, the system named is red blood cells. The class given is cell-based. The conditions noted are these: unit 6: 0.2 mM GSH+2 eq base, no PIC-1. Here is the method:
In another assay, the rabbit polyclonal sera may be reacted with treated red blood cells. After washing off unbound antibody, a FITC labeled goat anti-rabbit Fab′2 fragment (anti H+L chains, Caltag) is added. The binding of FITC label to the red blood cells correlates with the amount of acridine bound to the red blood cell surface, and is assessed by FACScan™ analysis (Becton, Dickinson and Co., NJ). The relative modification of the red blood cells is determined from the FACScan™ mean fluorescence value.
A 20 mL sample of leukoreduced whole blood (Blood Source, Sacramento, Calif.) was centrifuged at 4,100×g for 5 minutes at room temperature in each of four 50 mL centrifuge tubes. The supernatant was removed from each tube to provide red cell concentrate (RCC). […] For each washed RCC, cells were resuspended in 5 mL of the solution used for washing. This is now referred to as the RBC test sample. […] These samples were incubated for 20 hours at room temperature. After incubation, the RBC were washed in BBS (Blood Bank Saline, 0.9% saline, unbuffered, Fisher Scientific) and were diluted to a final hematocrit of 4%. A 25 μL aliquot of each was mixed with 15 μL of rabbit polyclonal anti-acridine sera diluted 1:100 in BBS and the mixture was incubated at 37° C. for 30 minutes. The cells were subsequently washed with 1.5 mL BBS. After washing was complete, the cells were mixed with 50 μL of FITC labeled goat anti-rabbit Fab′2 fragment (1:64 dilution in BBS) and incubated at 37° C. for 30 minutes. […] Note that the quenching improves as glutathione is neutralized with increasing amounts of sodium hydroxide.
The FACScan analysis of the binding of rabbit anti-acridine sera to treated red cells was used to assess a variety of quenching conditions. […] The tables represent data from two different experiments, each with samples treated under standard conditions or with 20 mM neutralized glutathione. […] The data within an experiment provides the relative efficacy of the various treatments. Because the assay may depend on the lot of red blood cells used, the absolute values of mean fluorescence may vary from one study to the next, such that relative values should only be compared within a given experiment. […] Neutralized glutathione at 20 mM results in close to background levels.
An untreated control sample as well as a standard sample (co-addition of 2 mM acidic glutathione with 0.2 mM PIC-1) were also assessed.
Full units of red cell concentrates (Interstate Blood Bank, Inc., Memphis, Tenn.) were leukoreduced. A volume of 200 mL of this RCC (80% hematocrit) was mixed with 94 mL of Erythrosol or 100 mL of Adsol (Baxter Healthcare Corp., Deerfield, Ill.) as control (unit 1). A volume of 20 mL 8% dextrose was used to dissolve PIC-1 (mg) and acid glutathione (mg) and added to one unit to provide 0.2 mM PIC-1 and 2 mM glutathione (unit 2). […] For the glutathione, 1.2 mL of 10 N NaOH was added (2 equivalents). The PIC-1 was mixed with the unit, followed 1 minute later (unit 3) or 5 minutes later (unit 4) by glutathione. For unit 5, neutralized glutathione was mixed first, followed 10 minutes later by the PIC-1. […] All units were mixed by grasping the ends of the blood bag and mixing in a FIG. 8 motion 30 times. These were then incubated at room temperature for 20 hours total. A compound adsorption device (CAD), comprising a polymeric resin contained within a mesh pouch, was used for all but the control sample. This device is intended to remove residual PIC-1, PIC-1 breakdown products, and glutathione from the samples. Samples were incubated for 8 hours, then transferred to a second blood bag containing the CAD and incubated for an additional 12 hours. Following the room temperature incubation, samples were transferred to a refrigerator (4° C.) and stored up to 43 days.

On to `N[C@@H](CCC(=O)N[C@@H](CS)C(=O)NCC(=O)O)C(=O)O` [glutathione, γ-L-glutamyl-L-cysteinyl-glycine], for which the mean fluorescence reads like this: (16C day 0.8) 2.16; (16C day 2) 1.78; (16C day 7) 1.58; (16C day 14) 1.48; (16C day 22) 1.58; (16C day 28) 2.02. Also, the mean fluorescence is, setting by setting: (16C day 35) 1.62; (16C day 43) 1.8.
